Reference: patent US20080118591A1, “Bactericidal Formulations” (priority 2004, published 2008)
Read-outs that look alike come from different tables or passages of the source.

Legend:
[1] = system: Pseudomonas aeruginosa; assay: Rapid bactericidal activity of liquid wash formulations; format: cell-based
Procedure: The above formulations are supplemented with 0.9% (w/v) of the perfume composition A of example 2. A control of each formulation is left un-perfumed. The rapid bactericidal activity of these formulations is then tested as follows: • The products are diluted 1:1 in hard water as defined in the European standard EN 1276. This mimics conditions of use on wet hands or wet surfaces in commonly used water. • 500 μl of the product is mixed with 25 μl of a bacterial inoculum containing 2×10^8 cfu/ml (colony forming units). • The mixture is incubated for 30 seconds at 37° C. • 20 μl of the mixture is removed and added to 180 μl neutralising solution (containing 3 g lecithin, 30 g Tween® 80, 5 g sodium thiosulfate, 1 g histidine, 30 g saponin, 8.5 g sodium chloride, 1 g tryptone and 1000 ml water). • The mixture with neutraliser is incubated for 1 min • Serial dilutions of the mixture with neutralising solution are made, and aliquots of these are added to Petri-dishes and embedded in tryptic soy agar containing 0.5% Tween® 80 to inactivate any residual antibacterial compounds. • Bacterial numbers are counted after 24 h incubation at 37° C. and compared to control samples. • Reduction in bacterial viability is determined as described in example 1
The resulting formulations are tested in a 1:1 dilution for their rapid bactericidal effects after 30 seconds for Pseudomonas aeruginosa.
Formulation IVg is supplemented as indicated in the table below with various different chelating agents instead of EDTA and is tested as described in example 5a. The resulting products are tested with 30 s contact time at a 1:1 dilution for bactericidal effects on P. aeruginosa.

[2] = system: gram-negative bacteria; assay: Rapid bactericidal effect of perfume ingredients (example 1, Mueller-Hinton broth, most probable number method); format: cell-based; settings: for rapid (30 s) bactericidal activity on gram-negative bacteria (class): 30 s contact time, 0.1% or 0.2% (w/v) in Mueller-Hinton broth
Procedure: A sufficiently rapid bactericidal activity of a perfume ingredient against gram-negative bacteria according to the invention is determined as follows. The perfume ingredient must have a reduction factor of bacterial viability of at least 20-fold when it is tested in a concentration of 0.2% in Mueller Hinton Broth with a contact time of 30 seconds as described below. The perfume ingredient is dissolved in dimethylsulfoxide (DMSO) in a concentration of 4% (w/v). An aliquot (10 μl) of the solution is added to individual wells of microtiter plates.
200 μl of Mueller-Hinton broth containing a bacterial inoculum of 2.5×10^6 cfu (colony forming units) is added. After 30 s contact time, 20 μl of the test solution is removed and added to 180 μl of a neutralising solution (containing 3 g lecithin, 30 g Tween® 80, 5 g sodium thiosulfate, 1 g histidine, 30 g saponin, 8.5 g sodium chloride, 1 g tryptone and 1000 ml water). After 1 min incubation, the sample is serially diluted 1:1 in Micotiter-plates containing 100 μl Mueller-Hinton Broth per well, and then incubated for 24 h at 37° C. The maximal dilution showing bacterial growth is recorded to determine the number of surviving bacteria (so-called most probable number method, which is a well-known microbiological method), and results are compared to control samples without added perfumery chemicals. Reduction in bacterial viability is thus calculated by dividing numbers of bacteria in control samples by the number surviving in the treated samples. […].
Test organisms Escherichia coli (ATCC 10536), Salmonella typhimurium (ATCC 13311) and Pseudomonas aeruginosa (ATCC 15442) are used. For Pseudomonas aeruginosa the test solution contains additionally 0.1% EDTA.
A large number of commercially-available materials including a collection of 900 perfumery chemicals is tested. The materials are dissolved in dimethylsulfoxide (DMSO) in a concentration of 4% (w/v). An aliquot (5 μl or 10 μl) of each solution is added to individual wells of microtiter plates. 200 μl of Mueller-Hinton broth containing a bacterial inoculum of 2.5×10^6 cfu (colony forming units) is added. After 30 s and 60 s contact time, 20 μl of the test solution is removed and added to 180 μl of a neutralising solution (containing 3 g lecithin, 30 g Tween® 80, 5 g sodium thiosulfate, 1 g histidine, 30 g saponin, 8.5 g sodium chloride, 1 g tryptone and 1000 ml water). After 1 min incubation, the samples are serially diluted 1:1 in Micotiter-plates containing 100 μl Mueller-Hinton Broth per well, and then incubated for 24 h at 37° C. The maximal dilution showing bacterial growth is recorded to determine the number of surviving bacteria (so-called most probable number method, which is a well-known microbiological method), and results are compared to control samples without added perfumery chemicals. Reduction in bacterial viability is thus calculated by dividing numbers of bacteria in control samples by the number surviving in the treated samples.

[3] = Pyrene 1:3 ratio (I373/I384) for micelle formation; format: physicochemical
Procedure: To 100 μl of each dilution, 5 μl of a pyrene solution (0.4 mM in ethanol) is added. After equilibration, the fluorescence of the solution with an excitation at 335 nm is determined.
To 100 μl of each dilution, 5 μl of a pyrene solution (0.4 mM in ethanol) is added. After equilibration, the fluorescence of the solution with an excitation at 335 nm is determined on an LS-50 Perkin Elmer fluorescence spectrometer.

[4] = chelating agent added to formulation instead of EDTA, 1:1, 30 s

Molecule: O=C(O)C[C@H](NCCN[C@@H](CC(=O)O)C(=O)O)C(=O)O [EDDS, ethylendiaminedisuccinic acid]
- effect of the chelating agent on rapid activity of the formulation against Pseudomonas aeruginosa (in words) [1, 4]: not able to provide this improved activity

Molecule: O=P(O)(O)CN(CP(=O)(O)O)CP(=O)(O)O [Aminotri (methylene-phosponic acid)]
- effect of the chelating agent on rapid activity of the formulation against Pseudomonas aeruginosa (in words) [1, 4]: not able to provide this improved activity

Molecule: O=C(O)CC(NC(CC(=O)O)C(=O)O)C(=O)O (stereo not drawn) [IDS, iminodisuccinic acid]
- effect of the chelating agent on rapid activity of the formulation against Pseudomonas aeruginosa (in words) [1, 4]: not able to provide this improved activity

Molecule: O=C(O)CN(CC(=O)O)[C@@H]1CCCC[C@H]1N(CC(=O)O)CC(=O)O (relative stereo) [CDTA, trans 1,2-diaminocyclohexane-N,N,N′N′-tetraacetic acid]
- effect of the chelating agent on rapid activity of the formulation against Pseudomonas aeruginosa (in words) [1]: further improves the effectiveness

Molecule: C=CC(C)(CCC=C(C)C)OC(=O)CC (stereo not drawn) [linalyl-propionate]
- antibacterial effect in formulations according to the present invention (in words) [2]: do not provide a sufficient antibacterial effect
- rapid (30 s) bactericidal activity on gram-negative bacteria (class) [2]: without activity

Molecule: CC(C)=CCC/C(C)=C\COC=O [neryl-formiate]
- antibacterial effect in formulations according to the present invention (in words) [2]: do not provide a sufficient antibacterial effect
- rapid (30 s) bactericidal activity on gram-negative bacteria (class) [2]: without activity

Molecule: C=CC(C)(CCC=C(C)C)OC=O (stereo not drawn) [linalyl-formiate]
- antibacterial effect in formulations according to the present invention (in words) [2]: do not provide a sufficient antibacterial effect
- rapid (30 s) bactericidal activity on gram-negative bacteria (class) [2]: without activity

Molecule: CCC(=O)OC/C=C(/C)CCC=C(C)C [neryl-propionate]
- antibacterial effect in formulations according to the present invention (in words) [2]: do not provide a sufficient antibacterial effect
- rapid (30 s) bactericidal activity on gram-negative bacteria (class) [2]: without activity

Molecule: O=C(O)CN(CC(=O)O)CC(=O)O [NTA, nitrilotriacetic acid]
- effect of the chelating agent on rapid activity of the formulation against Pseudomonas aeruginosa (in words) [1, 4]: not able to provide this improved activity

Molecule: O=C(O)CN(CCN(CC(=O)O)CC(=O)O)CCN(CC(=O)O)CC(=O)O [DTPA, di-ethylen-triamine-penta-acetate]
- effect of the chelating agent on rapid activity of the formulation against Pseudomonas aeruginosa (in words) [1, 4]: not able to provide this improved activity

Molecule: CCC(=O)OCCC(C)CCC=C(C)C (stereo not drawn) [citronellyl-propionate]
- antibacterial effect in formulations according to the present invention (in words) [2]: do not provide a sufficient antibacterial effect
- rapid (30 s) bactericidal activity on gram-negative bacteria (class) [2]: without activity

Molecule: CC(C)=CCC/C(C)=C/COC=O [Geranyl-formiate]
- antibacterial effect in formulations according to the present invention (in words) [2]: do not provide a sufficient antibacterial effect
- rapid (30 s) bactericidal activity on gram-negative bacteria (class) [2]: without activity

Molecule: CCCCCCCCCCCCOS(=O)(=O)[O-].[Na+] [Sodium dodecylsulfate]
- ratio (I373)/(I384) (pyrene 1:3 ratio) ([3]; CONC 0.01% in water): 1.11
- ratio (I373)/(I384) (pyrene 1:3 ratio) ([3]; CONC 0.02% in water): 1.12
- ratio (I373)/(I384) (pyrene 1:3 ratio) ([3]; CONC 0.04% in water): 1.08
- ratio (I373)/(I384) (pyrene 1:3 ratio) ([3]; CONC 0.08% in water): 0.92
- ratio (I373)/(I384) (pyrene 1:3 ratio) ([3]; CONC 0.16% in water): 0.78
- ratio (I373)/(I384) (pyrene 1:3 ratio) ([3]; CONC 0.31% in water): 0.79
- ratio (I373)/(I384) (pyrene 1:3 ratio) ([3]; CONC 0.63% in water): 0.75
- ratio (I373)/(I384) (pyrene 1:3 ratio) ([3]; CONC 1.25% in water): 0.74

Molecule: Cocoamidopropylbetaine
- ratio (I373)/(I384) (pyrene 1:3 ratio) ([3]; CONC 0.01% in water): 1.19
- ratio (I373)/(I384) (pyrene 1:3 ratio) ([3]; CONC 0.02% in water): 1.02
- ratio (I373)/(I384) (pyrene 1:3 ratio) ([3]; CONC 0.04% in water): 0.87
- ratio (I373)/(I384) (pyrene 1:3 ratio) ([3]; CONC 0.08% in water): 0.80
- ratio (I373)/(I384) (pyrene 1:3 ratio) ([3]; CONC 0.16% in water): 0.80
- ratio (I373)/(I384) (pyrene 1:3 ratio) ([3]; CONC 0.31% in water): 0.78
- ratio (I373)/(I384) (pyrene 1:3 ratio) ([3]; CONC 0.63% in water): 0.79
- ratio (I373)/(I384) (pyrene 1:3 ratio) ([3]; CONC 1.25% in water): 0.78

Molecule: CCC(=O)OC/C=C(\C)CCC=C(C)C [Geranyl-propionate]
- antibacterial effect in formulations according to the present invention (in words) [2]: do not provide a sufficient antibacterial effect
- rapid (30 s) bactericidal activity on gram-negative bacteria (class) [2]: without activity

Molecule: CC(=O)OCCC(C)CCC=C(C)C (stereo not drawn) [citronellyl-actetate]
- antibacterial effect in formulations according to the present invention (in words) [2]: do not provide a sufficient antibacterial effect
- rapid (30 s) bactericidal activity on gram-negative bacteria (class) [2]: without activity

Molecule: CC(O)(P(=O)(O)O)P(=O)(O)O [1-hydroxyethylidene-1,1-phosphonic acid]
- effect of the chelating agent on rapid activity of the formulation against Pseudomonas aeruginosa (in words) [1]: not able to provide this improved activity

Molecule: Diisopropyl-sulfosuccinate
- ratio (I373)/(I384) (pyrene 1:3 ratio) ([3]; CONC 0.01% in water): 1.21
- ratio (I373)/(I384) (pyrene 1:3 ratio) ([3]; CONC 0.02% in water): 1.21
- ratio (I373)/(I384) (pyrene 1:3 ratio) ([3]; CONC 0.04% in water): 1.20
- ratio (I373)/(I384) (pyrene 1:3 ratio) ([3]; CONC 0.08% in water): 1.36
- ratio (I373)/(I384) (pyrene 1:3 ratio) ([3]; CONC 0.16% in water): 1.99
- ratio (I373)/(I384) (pyrene 1:3 ratio) ([3]; CONC 0.31% in water): 1.65
- ratio (I373)/(I384) (pyrene 1:3 ratio) ([3]; CONC 0.63% in water): 1.48
- ratio (I373)/(I384) (pyrene 1:3 ratio) ([3]; CONC 1.25% in water): 1.39

Molecule: CC(C)=CCCC(C)CCOC=O (stereo not drawn) [citronellyl-formiate]
- antibacterial effect in formulations according to the present invention (in words) [2]: do not provide a sufficient antibacterial effect
- rapid (30 s) bactericidal activity on gram-negative bacteria (class) [2]: without activity

Molecule: Sodium xylene sulfonate
- ratio (I373)/(I384) (pyrene 1:3 ratio) ([3]; CONC 0.01% in water): 1.37
- ratio (I373)/(I384) (pyrene 1:3 ratio) ([3]; CONC 0.02% in water): 1.46
- ratio (I373)/(I384) (pyrene 1:3 ratio) ([3]; CONC 0.04% in water): 2.84
- ratio (I373)/(I384) (pyrene 1:3 ratio) ([3]; CONC 0.08% in water): 1.62
- ratio (I373)/(I384) (pyrene 1:3 ratio) ([3]; CONC 0.16% in water): 1.49
- ratio (I373)/(I384) (pyrene 1:3 ratio) ([3]; CONC 0.31% in water): 1.43
- ratio (I373)/(I384) (pyrene 1:3 ratio) ([3]; CONC 0.63% in water): 1.41
- ratio (I373)/(I384) (pyrene 1:3 ratio) ([3]; CONC 1.25% in water): 1.04
